This note sets out measurements from ChEMBL document CHEMBL5465560, “Selectivity Literature for EUbOPEN Chemogenomic Library” (2024).

Experiment [1] deals with Phosphatidylinositol 4,5-bisphosphate 3-kinase catalytic subunit alpha isoform (Homo sapiens), P42336 [H1047Y]. To be noted: at 10 µM.
The target of experiment [2] is Cyclin-dependent kinase 3 (Homo sapiens) (UniProt Q00526). To be noted: at 10 µM.
The target of experiment [3] is Fibroblast growth factor receptor 4 (Homo sapiens, UniProt P22455). As to the kind of experiment: Selectivity interaction (KinomeScan (DiscoverX)) EUB0000666a FGFR4. To be noted: at 10 µM.
Chain of Fibroblast growth factor receptor 4 (P22455 22-802 limits assumed): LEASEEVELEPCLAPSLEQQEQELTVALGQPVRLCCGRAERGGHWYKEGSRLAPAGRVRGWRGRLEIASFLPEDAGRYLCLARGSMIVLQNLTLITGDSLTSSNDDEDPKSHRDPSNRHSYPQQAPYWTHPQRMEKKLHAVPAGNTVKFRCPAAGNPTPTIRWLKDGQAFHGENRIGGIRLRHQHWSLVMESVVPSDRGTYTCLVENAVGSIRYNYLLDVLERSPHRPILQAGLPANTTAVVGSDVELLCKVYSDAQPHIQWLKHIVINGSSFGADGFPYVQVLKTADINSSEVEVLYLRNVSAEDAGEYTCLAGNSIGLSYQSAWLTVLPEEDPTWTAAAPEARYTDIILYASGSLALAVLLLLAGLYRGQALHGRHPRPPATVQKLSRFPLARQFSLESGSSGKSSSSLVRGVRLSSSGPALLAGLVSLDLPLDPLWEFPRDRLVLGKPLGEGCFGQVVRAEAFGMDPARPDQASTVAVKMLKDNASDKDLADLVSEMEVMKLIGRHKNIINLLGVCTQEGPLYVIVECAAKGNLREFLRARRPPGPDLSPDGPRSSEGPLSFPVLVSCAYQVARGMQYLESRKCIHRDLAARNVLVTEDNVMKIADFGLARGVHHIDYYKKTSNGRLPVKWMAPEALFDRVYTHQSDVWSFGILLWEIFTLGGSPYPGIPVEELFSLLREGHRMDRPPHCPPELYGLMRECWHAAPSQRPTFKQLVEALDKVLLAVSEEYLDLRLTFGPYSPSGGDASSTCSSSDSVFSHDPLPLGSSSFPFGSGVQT
Experiment [4] has as its target Serine/threonine-protein kinase MRCK gamma (Homo sapiens) (UniProt Q6DT37). As to the kind of experiment: Selectivity interaction (KinomeScan (DiscoverX)) EUB0000666a CDC42BPG. To be noted: at 10 µM.
In experiment [5] the target is T1, Peripheral plasma membrane protein CASK (Homo sapiens) (UniProt O14936).
T1 sequence (whole entry): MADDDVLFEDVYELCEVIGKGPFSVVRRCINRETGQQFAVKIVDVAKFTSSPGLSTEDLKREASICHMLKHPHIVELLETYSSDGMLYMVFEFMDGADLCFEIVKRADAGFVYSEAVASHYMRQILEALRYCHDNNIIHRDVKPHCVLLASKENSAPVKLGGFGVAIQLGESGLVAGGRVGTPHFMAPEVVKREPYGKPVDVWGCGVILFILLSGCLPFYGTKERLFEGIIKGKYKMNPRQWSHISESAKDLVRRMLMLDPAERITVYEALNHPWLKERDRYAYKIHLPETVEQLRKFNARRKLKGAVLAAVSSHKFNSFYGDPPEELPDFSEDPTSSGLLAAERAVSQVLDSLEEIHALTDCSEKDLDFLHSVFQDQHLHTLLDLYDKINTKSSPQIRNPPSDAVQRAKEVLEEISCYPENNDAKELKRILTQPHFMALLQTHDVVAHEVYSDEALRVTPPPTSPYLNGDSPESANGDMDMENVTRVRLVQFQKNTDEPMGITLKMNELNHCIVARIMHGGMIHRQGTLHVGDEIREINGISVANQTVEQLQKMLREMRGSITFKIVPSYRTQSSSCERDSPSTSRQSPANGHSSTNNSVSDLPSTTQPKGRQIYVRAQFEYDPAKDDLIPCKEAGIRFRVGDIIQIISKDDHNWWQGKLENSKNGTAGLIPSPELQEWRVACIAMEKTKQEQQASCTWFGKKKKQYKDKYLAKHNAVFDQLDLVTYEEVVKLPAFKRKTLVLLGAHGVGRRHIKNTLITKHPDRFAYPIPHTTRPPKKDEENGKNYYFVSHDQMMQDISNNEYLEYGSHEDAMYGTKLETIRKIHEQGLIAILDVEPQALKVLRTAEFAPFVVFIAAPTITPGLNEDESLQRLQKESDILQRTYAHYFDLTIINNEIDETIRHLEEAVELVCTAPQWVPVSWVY
As to the kind of experiment: Selectivity interaction (KinomeScan (DiscoverX)) EUB0000229b CASK. To be noted: at 10 µM.

The target in experiment [6] is Serine/threonine-protein kinase MARK2 (Homo sapiens) (UniProt Q7KZI7). The experiment can be described thus: Selectivity interaction (ActivX KiNativ screen (kinase selectivity in THP-1 cell lysates)) EUB0000639a MARK2. The format is subcellular. To be noted: lysate.
Chain of Serine/threonine-protein kinase MARK2 (Homo sapiens) (Q7KZI7 whole entry): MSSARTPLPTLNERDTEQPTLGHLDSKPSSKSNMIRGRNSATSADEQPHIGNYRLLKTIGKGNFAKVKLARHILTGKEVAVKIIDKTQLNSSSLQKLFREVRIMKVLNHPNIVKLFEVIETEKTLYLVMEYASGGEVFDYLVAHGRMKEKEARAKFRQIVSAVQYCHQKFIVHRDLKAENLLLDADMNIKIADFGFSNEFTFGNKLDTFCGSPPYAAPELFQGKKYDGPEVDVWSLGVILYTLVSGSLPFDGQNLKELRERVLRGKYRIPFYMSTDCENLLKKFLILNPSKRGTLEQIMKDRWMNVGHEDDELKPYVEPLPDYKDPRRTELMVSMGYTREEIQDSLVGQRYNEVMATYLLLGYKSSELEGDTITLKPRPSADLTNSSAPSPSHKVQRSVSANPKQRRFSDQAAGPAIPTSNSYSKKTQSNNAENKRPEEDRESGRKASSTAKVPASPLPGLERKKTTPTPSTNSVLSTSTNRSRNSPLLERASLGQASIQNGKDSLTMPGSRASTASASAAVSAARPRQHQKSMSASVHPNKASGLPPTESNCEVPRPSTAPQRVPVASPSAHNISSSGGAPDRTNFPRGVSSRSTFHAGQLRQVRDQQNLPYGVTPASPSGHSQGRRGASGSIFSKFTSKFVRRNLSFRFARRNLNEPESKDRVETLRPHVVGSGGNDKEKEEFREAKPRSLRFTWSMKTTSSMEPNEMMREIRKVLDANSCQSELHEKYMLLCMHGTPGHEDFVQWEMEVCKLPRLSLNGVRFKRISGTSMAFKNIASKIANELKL
In experiment [7] the test system is Mast/stem cell growth factor receptor Kit (Homo sapiens), P10721 [V559D,T670I]. To be noted: at 10 µM.
Chain of Mast/stem cell growth factor receptor Kit (Homo sapiens), P10721 [V559D,T670I] (P10721 whole entry V559D/T670I): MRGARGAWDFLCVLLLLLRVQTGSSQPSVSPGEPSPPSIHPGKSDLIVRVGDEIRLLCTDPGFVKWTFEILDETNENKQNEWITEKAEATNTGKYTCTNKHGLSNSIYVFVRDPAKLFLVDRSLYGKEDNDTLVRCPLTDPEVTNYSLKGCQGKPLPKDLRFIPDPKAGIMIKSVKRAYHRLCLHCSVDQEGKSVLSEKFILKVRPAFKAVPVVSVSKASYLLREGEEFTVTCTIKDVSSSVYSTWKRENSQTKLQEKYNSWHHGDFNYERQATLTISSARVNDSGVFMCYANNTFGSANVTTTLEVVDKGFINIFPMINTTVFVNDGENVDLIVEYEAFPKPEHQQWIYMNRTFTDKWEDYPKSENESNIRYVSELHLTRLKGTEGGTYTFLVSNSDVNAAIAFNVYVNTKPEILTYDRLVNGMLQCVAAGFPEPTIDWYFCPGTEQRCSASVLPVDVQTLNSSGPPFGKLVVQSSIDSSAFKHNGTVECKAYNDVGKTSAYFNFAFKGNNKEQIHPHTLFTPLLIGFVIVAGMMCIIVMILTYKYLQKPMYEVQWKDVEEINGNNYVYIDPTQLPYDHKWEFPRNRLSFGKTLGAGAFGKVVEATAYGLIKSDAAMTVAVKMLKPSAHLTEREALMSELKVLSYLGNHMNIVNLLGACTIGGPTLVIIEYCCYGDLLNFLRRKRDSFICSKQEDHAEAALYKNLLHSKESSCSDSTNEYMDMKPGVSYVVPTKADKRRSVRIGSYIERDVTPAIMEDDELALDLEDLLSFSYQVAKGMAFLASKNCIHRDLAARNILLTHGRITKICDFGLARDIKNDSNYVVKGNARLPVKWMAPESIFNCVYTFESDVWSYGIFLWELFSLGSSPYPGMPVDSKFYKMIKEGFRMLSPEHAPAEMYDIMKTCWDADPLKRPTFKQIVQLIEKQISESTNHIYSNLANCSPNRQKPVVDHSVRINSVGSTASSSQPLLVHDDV
Experiment [8] deals with T2, Serine/threonine-protein kinase BRSK1 (Homo sapiens) (UniProt Q8TDC3).
T2 sequence (whole entry): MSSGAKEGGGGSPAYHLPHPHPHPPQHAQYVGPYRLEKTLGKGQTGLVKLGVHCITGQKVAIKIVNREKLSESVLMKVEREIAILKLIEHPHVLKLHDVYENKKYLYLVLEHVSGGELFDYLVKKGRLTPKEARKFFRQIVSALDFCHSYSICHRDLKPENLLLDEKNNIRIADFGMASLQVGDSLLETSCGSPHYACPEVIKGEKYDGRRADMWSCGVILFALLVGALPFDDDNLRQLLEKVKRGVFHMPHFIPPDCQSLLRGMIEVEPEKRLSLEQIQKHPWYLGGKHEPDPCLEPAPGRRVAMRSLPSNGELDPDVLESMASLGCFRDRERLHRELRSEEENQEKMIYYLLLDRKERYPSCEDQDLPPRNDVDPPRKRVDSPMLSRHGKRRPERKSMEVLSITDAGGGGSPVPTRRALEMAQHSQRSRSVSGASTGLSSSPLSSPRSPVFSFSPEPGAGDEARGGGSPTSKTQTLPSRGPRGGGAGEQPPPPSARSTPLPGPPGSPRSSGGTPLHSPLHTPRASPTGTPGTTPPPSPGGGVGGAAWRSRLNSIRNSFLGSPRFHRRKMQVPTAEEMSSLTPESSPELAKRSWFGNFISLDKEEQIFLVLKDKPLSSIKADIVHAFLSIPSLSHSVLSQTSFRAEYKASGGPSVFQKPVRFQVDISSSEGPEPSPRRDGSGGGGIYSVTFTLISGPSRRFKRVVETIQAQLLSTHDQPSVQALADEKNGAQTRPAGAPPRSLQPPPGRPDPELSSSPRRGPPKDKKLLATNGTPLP
As to the kind of experiment: Selectivity interaction (KinomeScan (DiscoverX)) EUB0001049a BRSK1. To be noted: at 1 µM.

The target of experiment [9] is T3, Rhodopsin kinase GRK1 (Homo sapiens) (UniProt Q15835).
T3 sequence (whole entry): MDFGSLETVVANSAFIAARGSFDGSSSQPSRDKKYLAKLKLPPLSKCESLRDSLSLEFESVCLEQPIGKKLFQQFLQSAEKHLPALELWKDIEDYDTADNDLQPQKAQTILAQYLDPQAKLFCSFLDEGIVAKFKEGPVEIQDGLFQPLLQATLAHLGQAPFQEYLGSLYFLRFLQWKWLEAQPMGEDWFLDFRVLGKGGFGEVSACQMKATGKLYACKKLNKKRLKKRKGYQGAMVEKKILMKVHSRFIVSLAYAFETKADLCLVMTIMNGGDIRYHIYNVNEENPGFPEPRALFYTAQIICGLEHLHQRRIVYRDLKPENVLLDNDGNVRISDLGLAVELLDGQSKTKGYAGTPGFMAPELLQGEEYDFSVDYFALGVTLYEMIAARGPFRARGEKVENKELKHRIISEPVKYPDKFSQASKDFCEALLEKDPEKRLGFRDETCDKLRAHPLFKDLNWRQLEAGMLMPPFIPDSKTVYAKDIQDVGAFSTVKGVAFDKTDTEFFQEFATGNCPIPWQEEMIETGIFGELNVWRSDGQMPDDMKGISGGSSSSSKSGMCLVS
The experiment can be described thus: Selectivity interaction (KinomeScan (DiscoverX)) EUB0000695a GRK1. To be noted: at 100 nM.

Experiment [10] concerns the target Ribosomal protein S6 kinase alpha-5 (Homo sapiens) (UniProt O75582). The experiment can be described thus: Selectivity interaction (KinomeScan (DiscoverX)) EUB0000045b RPS6KA5.
Experiment [11] concerns the target cAMP-dependent protein kinase catalytic subunit alpha (Homo sapiens, UniProt P17612). The experiment can be described thus: Selectivity interaction (KinomeScan (DiscoverX)) EUB0000595a PRKACA. To be noted: at 10 µM.

Each structure is given as a SMILES string.

Chain of Ribosomal protein S6 kinase alpha-5 (Homo sapiens) (O75582 whole entry, looked up): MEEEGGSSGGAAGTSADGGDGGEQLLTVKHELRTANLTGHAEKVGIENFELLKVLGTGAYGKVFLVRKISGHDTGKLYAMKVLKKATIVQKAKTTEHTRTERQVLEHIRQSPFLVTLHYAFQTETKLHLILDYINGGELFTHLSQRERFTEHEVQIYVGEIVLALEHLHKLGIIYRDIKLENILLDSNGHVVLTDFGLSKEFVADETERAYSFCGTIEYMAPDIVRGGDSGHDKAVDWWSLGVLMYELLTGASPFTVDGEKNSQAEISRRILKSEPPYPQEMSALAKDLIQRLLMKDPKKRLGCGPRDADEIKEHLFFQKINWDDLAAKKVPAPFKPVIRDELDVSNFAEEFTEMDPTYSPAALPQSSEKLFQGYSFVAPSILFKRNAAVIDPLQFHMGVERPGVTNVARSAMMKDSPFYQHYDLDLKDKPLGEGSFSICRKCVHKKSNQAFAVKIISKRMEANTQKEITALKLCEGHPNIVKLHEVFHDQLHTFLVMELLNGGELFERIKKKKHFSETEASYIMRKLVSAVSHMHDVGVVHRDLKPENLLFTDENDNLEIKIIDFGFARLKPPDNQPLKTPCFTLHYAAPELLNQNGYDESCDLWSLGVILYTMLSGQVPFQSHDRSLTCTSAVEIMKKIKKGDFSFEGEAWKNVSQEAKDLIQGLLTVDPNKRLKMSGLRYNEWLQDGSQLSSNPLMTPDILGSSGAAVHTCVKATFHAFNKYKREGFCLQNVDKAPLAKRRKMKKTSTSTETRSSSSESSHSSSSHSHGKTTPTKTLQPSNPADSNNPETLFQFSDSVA
Chain of Phosphatidylinositol 4,5-bisphosphate 3-kinase catalytic subunit alpha isoform (Homo sapiens), P42336 [H1047Y] (P42336 whole entry H1047Y, canonical isoform): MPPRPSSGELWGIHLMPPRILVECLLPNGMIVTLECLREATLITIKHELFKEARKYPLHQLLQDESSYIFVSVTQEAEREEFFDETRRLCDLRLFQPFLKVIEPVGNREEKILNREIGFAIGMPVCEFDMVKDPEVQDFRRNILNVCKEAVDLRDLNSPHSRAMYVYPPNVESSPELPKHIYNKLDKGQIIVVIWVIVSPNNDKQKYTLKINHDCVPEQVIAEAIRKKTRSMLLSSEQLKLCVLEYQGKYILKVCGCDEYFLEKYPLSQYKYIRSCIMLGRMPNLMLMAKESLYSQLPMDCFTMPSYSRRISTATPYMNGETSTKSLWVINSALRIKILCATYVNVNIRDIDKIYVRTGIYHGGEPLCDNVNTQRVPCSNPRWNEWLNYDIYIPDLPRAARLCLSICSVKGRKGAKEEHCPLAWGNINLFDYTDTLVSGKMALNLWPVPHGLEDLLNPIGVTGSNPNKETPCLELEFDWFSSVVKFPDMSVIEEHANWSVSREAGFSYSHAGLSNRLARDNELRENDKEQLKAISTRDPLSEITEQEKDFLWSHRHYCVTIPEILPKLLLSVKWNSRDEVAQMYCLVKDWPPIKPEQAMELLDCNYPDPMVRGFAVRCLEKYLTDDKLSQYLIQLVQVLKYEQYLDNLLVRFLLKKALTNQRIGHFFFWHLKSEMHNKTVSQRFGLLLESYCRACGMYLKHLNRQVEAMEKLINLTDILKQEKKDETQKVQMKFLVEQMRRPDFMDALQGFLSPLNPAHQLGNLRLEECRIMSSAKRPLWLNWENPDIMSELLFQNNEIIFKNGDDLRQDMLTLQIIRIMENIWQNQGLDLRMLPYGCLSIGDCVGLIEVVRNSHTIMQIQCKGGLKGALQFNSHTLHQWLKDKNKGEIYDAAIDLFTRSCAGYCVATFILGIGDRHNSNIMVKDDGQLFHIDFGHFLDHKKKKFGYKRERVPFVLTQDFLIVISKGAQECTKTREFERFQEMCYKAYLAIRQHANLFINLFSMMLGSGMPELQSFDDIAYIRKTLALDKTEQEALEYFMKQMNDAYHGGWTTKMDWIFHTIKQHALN
Chain of Cyclin-dependent kinase 3 (Homo sapiens) (Q00526 whole entry, looked up): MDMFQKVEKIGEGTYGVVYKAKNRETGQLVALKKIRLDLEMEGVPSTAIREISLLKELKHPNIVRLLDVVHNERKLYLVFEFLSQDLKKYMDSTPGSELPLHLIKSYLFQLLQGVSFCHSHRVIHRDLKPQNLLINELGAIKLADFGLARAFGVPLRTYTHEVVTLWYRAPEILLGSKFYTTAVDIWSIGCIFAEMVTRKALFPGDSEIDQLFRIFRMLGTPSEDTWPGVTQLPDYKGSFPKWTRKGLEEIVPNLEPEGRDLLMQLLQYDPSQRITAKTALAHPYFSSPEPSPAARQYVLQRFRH

In [1], `CNC(=O)Nc1ccc(-c2nc(N3CC4CCC(C3)O4)c3cnn(C4CCC5(CC4)OCCO5)c3n2)cc1` gave a % of control of 9.6%.

`Cc1cc([C@@H](C)Nc2ccccc2C(=O)O)c2nc(N3CCOCC3)cc(=O)n2c1` [AZD-6482] displayed a % of control in experiment [2] of 100%.

As to `O=C(NOC[C@H](O)CO)c1ccc(F)c(F)c1Nc1ccc(I)cc1F`, the % of control stood at 54% in experiment [3] and 85% in [4].

In the case of `COc1cc(N(C)c2ccnc3ccc(C(F)(F)F)cc23)cc(OC)c1OC`, the % binding in [5] was determined as 55%.

`CC[C@@H]1[C@H](F)C(=O)N[C@@H]1COc1nccc2cc(C(N)=O)c(OC)cc12` [ZIMLOVISERTIB]: the % of inhibition was -8% in [6] (at 0.01 µM); 6.9% in experiment [6] (at 0.04 µM); 9.9% in experiment [6] (at 0.2 µM); 30% in experiment [6] (at 1 µM); 56.3% in experiment [6] (at 5 µM).

In [7], `CCN(CC)CCCCNc1ncc2cc(-c3cc(OC)cc(OC)c3)c(NC(=O)NC(C)(C)C)nc2n1` showed a % of control of 100%.

`COc1cc(Nc2nc(C)cc(-c3cnn4nc(OC)ccc34)n2)cc(C(F)(F)F)c1`: in experiment [8], the % of control amounted to 86%.

On to `Cc1cc(F)c(C(=O)Nc2cccc(-c3nncn3C(C)C)n2)cc1-n1cnc(C2CC2)c1`, for which the % of control in experiment [9] amounted to 100%.

Regarding `C=CC(=O)Nc1cc(-n2c(=O)ccc3cnc4ccc(-c5ccc(NS(C)(=O)=O)cc5)cc4c32)ccc1C`, the % of control in experiment [10] (at 1 µM) and in experiment [10] (at 10 µM) was 100% throughout.

In turn, `COCC(=O)NC/C=C/c1ccc2ncnc(Nc3ccc(Oc4ccc(C)nc4)c(C)c3)c2c1` [CP-724714] came in with a % of control in experiment [11] of 100%.
